Experiments:
[1] = xn = mol fraction of the nth substance listed; conditions: 101 kPa, Liquid
[2] = excess molar enthalpy (molar enthalpy of mixing); xn = mol fraction of the nth substance listed; conditions: 101 kPa, Liquid, Flow calorimetry

CCCC[n+]1ccc(C)cc1.F[B-](F)(F)F [1-butyl-4-methylpyridinium tetrafluoroborate] + CCO
Conditions	excess molar enthalpy [kJ/mol]	mass density [kg/m3]
[1], 298.15 K, x1 = 0.0523	–	852
[1], 298.15 K, x1 = 0.1023	–	901.7
[1], 298.15 K, x1 = 0.1469	–	938.3
[1], 298.15 K, x1 = 0.2023	–	976
[1], 298.15 K, x1 = 0.307	–	1030.5
[1], 298.15 K, x1 = 0.3801	–	1059.5
[1], 298.15 K, x1 = 0.4445	–	1080.8
[1], 298.15 K, x1 = 0.5069	–	1098.6
[1], 298.15 K, x1 = 0.5553	–	1110.8
[1], 298.15 K, x1 = 0.6045	–	1121.8
[1], 298.15 K, x1 = 0.6639	–	1134.2
[1], 298.15 K, x1 = 0.7127	–	1142.8
[1], 298.15 K, x1 = 0.7447	–	1148.4
[1], 298.15 K, x1 = 0.7964	–	1156.8
[1], 298.15 K, x1 = 0.8673	–	1167
[1], 298.15 K, x1 = 0.9171	–	1173.6
[1], 318.15 K, x1 = 0.0464	–	827.9
[1], 318.15 K, x1 = 0.0965	–	881.1
[1], 318.15 K, x1 = 0.1445	–	921.6
[1], 318.15 K, x1 = 0.2494	–	987.9
[1], 318.15 K, x1 = 0.2968	–	1011
[1], 318.15 K, x1 = 0.3855	–	1046.8
[1], 318.15 K, x1 = 0.4947	–	1080.9
[1], 318.15 K, x1 = 0.5877	–	1103.6
[1], 318.15 K, x1 = 0.6821	–	1123.2
[1], 318.15 K, x1 = 0.7798	–	1139.8
[1], 318.15 K, x1 = 0.8267	–	1146.8
[1], 318.15 K, x1 = 0.8776	–	1153.8
[2], 298.15 K, x1 = 0.0209	0.299	–
[2], 298.15 K, x1 = 0.0461	0.623	–
[2], 298.15 K, x1 = 0.0751	0.936	–
[2], 298.15 K, x1 = 0.1068	1.19	–
[2], 298.15 K, x1 = 0.1406	1.5	–
[2], 298.15 K, x1 = 0.1751	1.75	–
[2], 298.15 K, x1 = 0.2104	2.01	–
[2], 298.15 K, x1 = 0.246	2.21	–
[2], 298.15 K, x1 = 0.2661	2.32	–
[2], 298.15 K, x1 = 0.3	2.39	–
[2], 298.15 K, x1 = 0.3402	2.43	–
[2], 298.15 K, x1 = 0.3855	2.39	–
[2], 298.15 K, x1 = 0.4296	2.28	–
[2], 298.15 K, x1 = 0.4879	2.12	–
[2], 298.15 K, x1 = 0.5522	1.9	–
[2], 298.15 K, x1 = 0.6225	1.63	–
[2], 298.15 K, x1 = 0.712	1.33	–
[2], 298.15 K, x1 = 0.8071	0.931	–
[2], 298.15 K, x1 = 0.903	0.504	–
[2], 318.15 K, x1 = 0.0162	0.379	–
[2], 318.16 K, x1 = 0.0465	0.883	–
[2], 318.17 K, x1 = 0.075	1.32	–
[2], 318.18 K, x1 = 0.108	1.71	–
[2], 318.19 K, x1 = 0.1427	2.07	–
[2], 318.2 K, x1 = 0.178	2.37	–
[2], 318.21 K, x1 = 0.2091	2.6	–
[2], 318.22 K, x1 = 0.2364	2.75	–
[2], 318.23 K, x1 = 0.2498	2.86	–
[2], 318.24 K, x1 = 0.2824	2.96	–
[2], 318.25 K, x1 = 0.3237	3	–
[2], 318.26 K, x1 = 0.3722	3	–
[2], 318.27 K, x1 = 0.4286	2.92	–
[2], 318.28 K, x1 = 0.4859	2.78	–
[2], 318.29 K, x1 = 0.5506	2.59	–
[2], 318.3 K, x1 = 0.6196	2.33	–
[2], 318.31 K, x1 = 0.6923	2.02	–
[2], 318.32 K, x1 = 0.7625	1.69	–
[2], 318.33 K, x1 = 0.8348	1.32	–
[2], 318.34 K, x1 = 0.9014	0.892	–
[2], 318.35 K, x1 = 0.9592	0.425	–

Reference: the NIST ThermoML archive (doi:10.1016/j.jct.2008.02.019)
